The text below walks through data of ChEMBL document CHEMBL3272203, “Phosphorus-nitrogen compounds. 22. Synthesis and antitumor activity of arylsulfonylhydrazone analogues” (J Med Chem, 1978).

Data set [1] deals with P388. The experiment in a line: Antitumor activity against mouse P388 cells allografted in mouse assessed as host survival time at 40 mg/kg administered qd for 9 days beginning 24 hrs after tumor implantation relative to control in presence of 8 mg/kg CuCl2. The class given is functional.
Data set [2] has as its system P388. The experiment in a line: Antitumor activity against mouse P388 cells allografted in mouse assessed as host survival time at 100 mg/kg administered qd for 9 days beginning 24 hrs after tumor implantation relative to control. It counts as functional.
Data set [3] has as its system Ehrlich. The data set can be described thus: Antitumor activity against mouse Ehrlich ascites carcinoma cells allografted in mouse assessed as host survival time at 100 mg/kg administered qd for 6 days beginning 24 hrs after tumor implantation relative to control. It counts as functional.
Data set [4] relates to Sarcoma-180. The experiment in a line: Antitumor activity against mouse Sarcoma 180 cells allografted in mouse assessed as host survival time at 100 mg/kg administered qd for 6 days beginning 24 hrs after tumor implantation relative to control. It counts as functional.
In data set [5] the test system is Sarcoma-180. The experiment in a line: Antitumor activity against mouse Sarcoma 180 cells allografted in mouse assessed as host survival time at 40 mg/kg administered qd for 6 days beginning 24 hrs after tumor implantation relative to control in presence of 8 mg/kg CuCl2. The class given is functional.
Data set [6] deals with Ehrlich. The data set can be described thus: Antitumor activity against mouse Ehrlich ascites carcinoma cells allografted in mouse assessed as host survival time at 40 mg/kg administered qd for 6 days beginning 24 hrs after tumor implantation relative to control in presence of 8 mg/kg CuCl2. The class given is functional.
A short description of data set [7]: Octanol-water partition coefficient, log P of the compound. It counts as physicochemical.
The test system of data set [8] is Ehrlich. The data set can be described thus: Antitumor activity against mouse Ehrlich ascites carcinoma cells allografted in mouse assessed as host survival time at 50 mg/kg administered qd for 6 days beginning 24 hrs after tumor implantation relative to control in presence of 8 mg/kg CuCl2. The class given is functional.
Data set [9] can be described thus: Metal chelating activity of the compound assessed as Fe2+-complex formation by absorbance analysis. It counts as physicochemical.
Data set [10] deals with Sarcoma-180. The data set can be described thus: Antitumor activity against mouse Sarcoma 180 cells allografted in mouse assessed as host survival time at 50 mg/kg administered qd for 6 days beginning 24 hrs after tumor implantation relative to control in presence of 8 mg/kg CuCl2. The class given is functional.
Data set [11] in a line: Metal chelating activity of the compound assessed as Co2+-complex formation by absorbance analysis. It counts as physicochemical.
Data set [12] concerns P388. The experiment in a line: Antitumor activity against mouse P388 cells allografted in mouse assessed as host survival time at 50 mg/kg administered qd for 9 days beginning 24 hrs after tumor implantation relative to control in presence of 8 mg/kg CuCl2. The class given is functional.
Data set [13] can be described thus: Metal chelating activity of the compound assessed as cupric ion complex formation by absorbance analysis. It counts as physicochemical.
Data set [14] can be described thus: Metal chelating activity of the compound assessed as cupric ion complex formation at drug:cupric chloride ratio of 1:1 by absorbance analysis. It counts as physicochemical.
Data set [15] in a line: Metal chelating activity of the compound assessed as cupric ion complex formation at drug:cupric chloride ratio of 2:1 by absorbance analysis. It counts as physicochemical.

What is called T/C is the result in the treated group divided by that in the control group, in per cent. By logP is commonly meant the decadic logarithm of the partition coefficient of the neutral form, usually between octanol and water.

As for `S=P(N/N=C/c1ccccn1)(Oc1ccccc1)Oc1ccccc1`, the T/C in the data set on P388 [1] is 94%; with P388 [2], 102%.

As to `S=P(N/N=C/c1ccccn1)(N/N=C/c1ccccn1)Oc1ccccc1`, the T/C in the data set on Ehrlich [3] was 114%; in the data set with Sarcoma-180 [4], 93%; in the data set on P388 [1] it was 97%; with Sarcoma-180 [5], 141%; in the data set with Ehrlich [6], 269%; in the data set with P388 [2], 87%. The lipophilicity (logP) in data set [7] was 1.62.

Take `[O-][n+]1ccccc1/C=N/NP(=S)(N/N=C/c1cccc[n+]1[O-])c1ccccc1`: the T/C worked out at 104% in the data set with Ehrlich [3]; 79% in the data set with Sarcoma-180 [4]; 204% in the data set on Ehrlich [8]; 106% with Sarcoma-180 [10]; 114% with P388 [2]; 87% in the data set with P388 [12]. The Activity result in [9] and in [11] was “Not Active” each time.

As for `CCOP(=O)(N/N=C/c1cccc[n+]1[O-])OCC`, the T/C is listed as 160% in the data set on Ehrlich [3], 78% with P388 [1], 98% with Ehrlich [6] and 108% with P388 [2]. For the same compound, the Activity result in [9], in data set [11] and in [13] was “Not Active” in each case.

As to `CCOP(=S)(N/N=C/c1cccc[n+]1[O-])OCC`, the T/C is 108% in the data set on Ehrlich [3]; 96% with Sarcoma-180 [4]; 73% with P388 [1]; 126% in the data set on Sarcoma-180 [5]; 135% in the data set with Ehrlich [6]; 111% with P388 [2]. Further, the Activity entry in data set [9] and in [11] was “Not Active” in each case.

In the case of `[O-][n+]1ccccc1/C=N/NP(=S)(N/N=C/c1cccc[n+]1[O-])Oc1ccccc1`, the T/C in the data set on Ehrlich [3] is reported as 123%; in the data set with Sarcoma-180 [4], 89%; with P388 [1], 89%; in the data set with Sarcoma-180 [5], 85%; with Ehrlich [6], 166%; in the data set with P388 [2] it was 103%. Also, the Activity result in data set [9] and in data set [11] was “Not Active” in each case. In addition, the lipophilicity (logP) in data set [7] is 1.28.

`O.O=P(O)(N/N=C/c1ccccn1)Oc1ccccc1`: the T/C is 115% in the data set on Ehrlich [3]; 95% in the data set on Sarcoma-180 [4]; 99% in the data set on P388 [1]; 79% in the data set on Sarcoma-180 [5]; 163% in the data set on Ehrlich [6]; 103% in the data set on P388 [2]. Also, the Activity entry is given as “Active” in data set [14], “Not Active” in data set [9] and “Active” in data set [11].

Consider `S=P(N/N=C/c1ccccn1)(N/N=C/c1ccccn1)c1ccccc1`, for which the T/C in the data set with Ehrlich [3] is listed as 190%; in the data set on Sarcoma-180 [4], 81%; with Ehrlich [8] it was 150%; in the data set with Sarcoma-180 [10], 87%; in the data set on P388 [2], 108%; in the data set with P388 [12] it was 95%.

Take `O.O=P(O)(N/N=C/c1cccc[n+]1[O-])Oc1ccccc1`: the T/C in the data set on Ehrlich [3] was determined as 118%; in the data set on Sarcoma-180 [4], 107%; in the data set with Sarcoma-180 [5], 87%; in the data set with Ehrlich [6], 164%. Besides, the Activity entry is listed as “Not Active” in data set [9], “Active” in data set [11] and “Active” in data set [15]. Besides, in data set [7], the logP is -0.76.

`[O-][n+]1ccccc1/C=N/NP(=S)(Oc1ccccc1)Oc1ccccc1`: the T/C with Ehrlich [3] is listed as 144%; in the data set with Sarcoma-180 [4], 93%; in the data set with P388 [1] it was 94%; with Sarcoma-180 [5] it was 106%; in the data set on Ehrlich [6], 204%; in the data set on P388 [2] it was 113%. For the same compound, the Activity result in [9] and in [11] was “Not Active” each time.

On to `O=P(N/N=C/c1cccc[n+]1[O-])(Oc1ccccc1)Oc1ccccc1`, for which the T/C is 111% in the data set on P388 [2] and 95% in the data set on P388 [12].

As for `[O-][n+]1ccccc1`, in [7], the logP was -1.69.

For the compound `O=P1(N(CCCl)CCCl)NCCCO1` (centres undefined) [CYCLOPHOSPHAMIDE ANHYDROUS], the logP in data set [7] was 0.63.

In the case of `O=P(N/N=C/c1ccccn1)(Oc1ccccc1)Oc1ccccc1`, the values for the T/C in the data set on P388 [1] and with P388 [2] were 92% and 117%, respectively. Besides, in data set [15], the outcome was Active.
